The record followed here is patent publication US10858335B2 (Rigel Pharmaceuticals, Inc., priority 2014, dated 2020).

One assay deals with GDF8 signaling (p-SMAD-3 (Ser423/425)). Put plainly: AlphaScreen SureFire SMAD3 (p-Ser423/425) assay, GDF8-stimulated cells (GDF pSMAD). The class given is cell-based. As to conditions: GDF8-stimulated pSMAD3, MPC11; tested as the salt form given; read-out: GDF pSMAD (MPC11) (μM), inhibition of GDF8 signaling. A general note: Bead proximity is the source of the signal in Alpha formats.
For `CN(C)CCNc1ncnc2ccc(-c3cccnc3-c3cc(Cl)ccc3F)cc12` [compound 1093], the IC50 came out at 0.2 µM.

The assay is the same for the next values; noted with them: Mus musculus, MPC-11, GDF8-stimulated pSMAD3, MPC11; tested as the salt form given; read-out: GDF pSMAD (MPC11) (μM), inhibition of GDF8 signaling.
For `Cc1ccc(Cl)c(-c2ncccc2-c2ccc3ncnc(N)c3c2)c1` [compound 984, 6-(2-(2-chloro-5-methylphenyl)pyridin-3-yl)quinazolin-4-amine], the IC50 is 0.45 µM.

Regarding `Cc1cc(C)c(-c2ncccc2-c2ccc3ncnc(N)c3c2)cc1F` [compound 988, 6-(2-(5-fluoro-2,4-dimethylphenyl)pyridin-3-yl)quinazolin-4-amine], the IC50 was found to be 1.06 µM.

Take `Nc1ncnc2ccc(-c3cccnc3-c3ccc(F)c(OC(F)F)c3)cc12` [compound 1010, 6-(2-(3-(difluoromethoxy)-4-fluorophenyl)pyridin-3-yl)quinazolin-4-amine]: the IC50 was 0.562 µM.

The assay is the same for the next values; noted with them: Mus musculus, MPC-11, MPC11; GDF8-stimulated; p-SMAD3 AlphaScreen; read-out: GDF pSMAD (MPC11) (inhibition of GDF8 signaling).
On to `COc1ccc(-c2ncccc2-c2ccc3[nH]ncc3c2)cc1` [Compound 118, 5-(2-(4-Methoxyphenyl)pyridin-3-yl)-1H-indazole], for which the IC50 worked out at 3.79 µM.

Regarding `Cc1cc(-c2nc3c(cc2-c2ccc4ncsc4c2)NC(=O)CO3)ccc1F` [compound 292, 7-(Benzo[d]thiazol-6-yl)-6-(4-fluoro-3-methylphenyl)-1H-pyrido[2,3-b] [1,4]oxazin-2(3H)-one], the IC50 stood at 1.74 µM.

As for `Fc1ccc(-c2ncccc2-c2ccn3nccc3c2)cc1Cl` [compound 758, 5-(2-(3-Chloro-4-fluorophenyl)pyridin-3-yl)pyrazolo[1,5-a]pyridine], the IC50 came to 0.426 µM.

Consider `OCc1cnc2ccc(-c3cccnc3-c3cccc(C(F)(F)F)c3)cn12` [compound 568, (6-(2-(3-(Trifluoromethyl)phenyl)pyridin-3-yl)imidazo[1,2-a]pyridin-3-yl)methanol], for which the IC50 amounted to 0.674 µM.

Regarding `Cc1cc(-c2ncccc2-c2ccc3ncn(CCN4CCOCC4)c3c2)ccc1F` [Compound 35, 6-(2-(4-Fluoro-3-methylphenyl)pyridin-3-yl)-1-(2-morpholinoethyl)-1H-benzo[d]imidazole], the IC50 amounted to 10.8 µM.

In the case of `Fc1cccc(-c2ncccc2-c2ccc3ncsc3c2)c1` [compound 658, 6-(2-(3-Fluorophenyl)pyridin-3-yl)benzo[d]thiazole], the IC50 is 1.5 µM.

`CN1CCC(NC(=O)c2cnc3ccc(-c4cccnc4-c4cccc(Cl)c4)cn23)CC1` [compound 708, 6-(2-(3-Chlorophenyl)pyridin-3-yl)-N-(1-methylpiperidin-4-yl)imidazo[1,2-a]pyridine-3-carboxamide]: the IC50 was 0.266 µM.

As for `Cc1cccc(-c2ncccc2-c2ccn3nccc3n2)c1` [compound 911, 5-(2-(m-Tolyl)pyridin-3-yl)pyrazolo[1,5-a]pyrimidine], the IC50 stood at 0.0939 µM.

Turning to `c1cc(-c2ncccc2-c2ccc3ncsc3c2)cc(C2CC2)c1` [Compound 194, 6-(2-(3-Cyclopropylphenyl)pyridin-3-yl)benzo[d]thiazole], the IC50 was found to be 0.149 µM.

For the compound `Cc1cc(-c2ncccc2-c2ccc3c(cnn3C(=O)NCCN3CCCC3)c2)ccc1F` [compound 636, 5-(2-(4-Fluoro-3-methylphenyl)pyridin-3-yl)-N-(2-(pyrrolidin-1-yl)ethyl)-1H-indazole-1-carboxamide], the IC50 was 8.69 µM.

In the case of `CS(=O)(=O)Nc1cccc(-c2ncccc2-c2ccc3[nH]ncc3c2)c1` [Compound 76, 5-(2-(3-Methylsulfphonylaminophenyl)pyridin-3-yl)-1H-indazole], the IC50 worked out at 1.81 µM.

Regarding `Cc1cccc(-c2ncccc2-c2cnc3cn[nH]c3c2)c1` [Compound 139, 6-(2-m-Tolylpyridin-3-yl)-1H-pyrazolo[4,3-b]pyridine], the IC50 was 3.37 µM.

In the case of `Cc1cc(-c2ncc(NCc3cnc[nH]3)cc2-c2ccc3ncsc3c2)ccc1F` [compound 322, N-((1H-Imidazol-5-yl)methyl)-5-(benzo[d]thiazol-6-yl)-6-(4-fluoro-3-methylphenyl)pyridin-3-amine], the IC50 amounted to 0.253 µM.

For the compound `Cc1cc(-c2ncccc2-c2ccc3ncc(C(=O)NCCO)n3c2)ccc1F` [compound 705, 6-(2-(4-Fluoro-3-methylphenyl)pyridin-3-yl)-N-(2-hydroxyethyl)imidazo[1,2-a]pyridine-3-carboxamide], the IC50 is 0.122 µM.

Turning to `Cc1ccc(Cl)cc1-c1ncccc1-c1ccc2ncnc(N)c2c1` [compound 463, 6-(2-(5-Chloro-2-methylphenyl)pyridin-3-yl)quinazolin-4-amine], the IC50 came out at 0.297 µM.

Turning to `Cc1cc(-c2ncc(NCc3ccc(Cl)nc3)cc2-c2ccc3ncsc3c2)ccc1F` [compound 321, 5-(Benzo[d]thiazol-6-yl)-N-((6-chloropyridin-3-yl)methyl)-6-(4-fluoro-3-methylphenyl)pyridin-3-amine], the IC50 worked out at 0.679 µM.

With `Cc1cc(-c2ncc(NCc3cccc(O)c3)cc2-c2ccc3ncsc3c2)ccc1F` [compound 332, 3-(((5-(Benzo[d]thiazol-6-yl)-6-(4-fluoro-3-methylphenyl)pyridin-3-yl)amino)methyl)phenol], the IC50 amounted to 0.311 µM.

On to `Cc1cc(-c2ncc(N)cc2-c2ccc3ncsc3c2)ccc1F` [Compound 18, 5-(Benzo[d]thiazol-6-yl)-6-(4-fluoro-3-methylphenyl)pyridin-3-amine], for which the IC50 stood at 0.142 µM.

As to `Clc1cccc(-c2ncccc2-c2ccn3nccc3c2)c1` [compound 759, 5-(2-(3-Chlorophenyl)pyridin-3-yl)pyrazolo[1,5-a]pyridine], the IC50 was determined as 0.175 µM.

`Cc1cc(-c2ncc(NCc3ccc(O)c(O)c3)cc2-c2ccc3ncsc3c2)ccc1F` [compound 368, 4-(((5-(Benzo[d]thiazol-6-yl)-6-(4-fluoro-3-methylphenyl)pyridin-3-yl)amino)methyl)benzene-1,2-diol]: the IC50 was 0.189 µM.

As for `Cc1cc(-c2ncccc2-c2ccc3ncn(CCCN4CCN(C)CC4)c3c2)ccc1F` [compound 253, 1-(3-(4-Methylpiperazin-1-yl)propyl)-6-(2-(4-fluoro-3-methylphenyl)pyridin-3-yl)-1H-benzo[d]imidazole], the IC50 amounted to 12.4 µM.

For `O=c1[nH]cnc2ccc(-c3cccnc3-c3cc(Cl)ccc3F)cc12` [compound 822, 6-(2-(5-Chloro-2-fluorophenyl)pyridin-3-yl)quinazolin-4(3H)-one], the IC50 was determined as 0.127 µM.

As to `Cc1cc(-c2ncc(NC(=O)CCCc3ccncc3)cc2-c2ccc3ncsc3c2)ccc1F` [compound 317, N-(5-(Benzo[d]thiazol-6-yl)-6-(4-fluoro-3-methylphenyl)pyridin-3-yl)-4-(pyridin-4-yl)butanamide], the IC50 was found to be 5.5 µM.

Consider `CC(=O)c1cnc2ccc(-c3cccnc3-c3ccc(F)c(Cl)c3)cn12` [compound 762, 1-(6-(2-(3-Chloro-4-fluorophenyl)pyridin-3-yl)imidazo[1,2-a]pyridin-3-yl)ethan-1-one], for which the IC50 was 1.19 µM.

On to `Cc1cc(-c2ncccc2-c2ccc3nccc(C(N)=O)c3c2)ccc1F` [compound 846, 6-(2-(4-Fluoro-3-methylphenyl)pyridin-3-yl)quinoline-4-carboxamide], for which the IC50 turned out to be 14.3 µM.

Take `Cc1cccc(-c2ncccc2-c2ccc3[nH]ncc3c2)c1` [Compound 68, 5-(2-m-Tolylpyridin-3-yl)-1H-indazole]: the IC50 was found to be 0.186 µM.

With `Cc1cc(-c2ncccc2-c2ccc3ncc(CN4CCOCC4)n3c2)ccc1F` [compound 569, 4-((6-(2-(4-Fluoro-3-methylphenyl)pyridin-3-yl)imidazo[1,2-a]pyridin-3-yl)methyl)morpholine], the IC50 turned out to be 5.41 µM.
